The source of these data is patent US20180250221A1, “GARDENIA EXTRACT FOR COLOURING THE SKIN” (PIERRE FABRE MEDICAMENT, priority 2015, published 2018).

The test system of this assay is human skin explants. Briefly: Colouring effect on human skin explants under survival conditions (ex vivo model). The format is cell-based. Particulars: 72 hours, C-Cube Dermoscope colorimetric differences, four donors. Here is the method: Owing to the lack of cell and animal pharmacological models, the inventors developed an ex vivo model in order to overcome the difficulties related to absorption of the active agents. Indeed, there is no absorption of crocin without intestinal hydrolysis first and low assimilation of crocetin and of these derivatives after passage.
The objective of this study was to evaluate the colouring effect of various extracts applied to human skin explants under survival conditions over 72 hours. Maintenance under survival conditions is carried out in 6-well culture plates containing culture medium. These culture plates are placed in an incubator at 37° C. with 5% CO2. The studies were carried out on four donors.
The colouring of each medium containing active agents or control is evaluated with the C-Cube Dermoscope (Clinical Edition) from Pixience SAS. The evaluation concerns the maximum colouring which can be obtained, i.e., the 100% level on the colour mapping scale relating to each active agent. The colouring of each explant is measured using the C-Cube Dermoscope (Clinical Edition). First, the explant is placed in a solution of medium with no active agent in order to rinse the explant of the active agent molecules present on the explant surface and which have not penetrated the skin. […]

As for `CC(/C=C/C=C(\C)C(=O)O)=C\C=C\C=C(C)\C=C\C=C(/C)C(=O)O` [crocetin], the colouring strength result was “high colouring strength”.
